According to US11230538B2, “Herbicides” (SYNGENTA PARTICIPATIONS AG, priority 2016, dated 2022):

How the values were obtained:
Type in all cases: in vivo
[1] = test system: Alopecurus myosuroides (ALOMY); assay: B1 Pre-emergence herbicidal activity; parameters: key: 5=total damage to plant; 0=no damage to plant; conditions: pre-emergence application, rate 1000 g/ha, evaluated after 13 days
Procedure: (§1) Seeds of a variety of test species were sown in standard soil in pots: Triticum aestivium (TRZAW), Avena fatua (AVEFA), Alopecurus myosuroides (ALOMY), Echinochloa crus-galli (ECHCG), Lolium perenne (LOLPE), Zea Mays (ZEAMX), Abutilon theophrasti (ABUTH), Amaranthus retroflexus (AMARE) and Setaria fabenr (SETFA). After cultivation for one day (pre-emergence) under controlled conditions in a glasshouse (at 24/16° C., day/night; 14 hours light; 65% humidity), the plants were sprayed with an aqueous spray solution derived from the formulation of the technical active ingredient in acetone I water (50:50) solution containing 0.5% Tween 20 (polyoxyethelyene sorbitan monolaurate, CAS RN 9005-64-5). The test plants were then grown in a glasshouse under controlled conditions (at 24/16° C., day/night; 14 hours light; 65% humidity) and watered twice daily. After 13 days, the test was evaluated (5=total damage to plant; 0=no damage to plant).

[2] = test system: Avena fatua (AVEFA); assay: B1 Pre-emergence herbicidal activity; parameters: key: 5=total damage to plant; 0=no damage to plant; conditions: pre-emergence application, rate 1000 g/ha, evaluated after 13 days
Procedure: as §1

[3] = test system: Triticum aestivium (TRZAW); assay: B1 Pre-emergence herbicidal activity; parameters: key: 5=total damage to plant; 0=no damage to plant; conditions: pre-emergence application, rate 1000 g/ha, evaluated after 13 days
Procedure: as §1

[4] = test system: Echinochloa crus-galli (ECHCG); assay: B1 Pre-emergence herbicidal activity; parameters: key to Pre-emergence herbicidal activity, ECHCG (damage score 0-5): 5=total damage to plant; 0=no damage to plant; conditions: pre-emergence application, rate 1000 g/ha, evaluated after 13 days
Procedure: as §1

[5] = test system: Lolium perenne (LOLPE); assay: B1 Pre-emergence herbicidal activity; parameters: key to Pre-emergence herbicidal activity, LOLPE (damage score 0-5): 5=total damage to plant; 0=no damage to plant; conditions: pre-emergence application, rate 1000 g/ha, evaluated after 13 days
Procedure: as §1

[6] = test system: Setaria fabenr (SETFA); assay: B1 Pre-emergence herbicidal activity; parameters: key to Pre-emergence herbicidal activity, SETFA (damage score 0-5): 5=total damage to plant; 0=no damage to plant; conditions: pre-emergence application, rate 1000 g/ha, evaluated after 13 days
Procedure: as §1

[7] = test system: Echinochloa crus-galli (ECHCG); assay: B2 Post-emergence herbicidal activity; conditions: post-emergence application, rate 1000 g/ha, evaluated after 13 days
Procedure: (§2) Seeds of a variety of test species were sown in standard soil in pots: Triticum aestivium (TRZAW), Avena fatua (AVEFA), Alopecurus myosuroides (ALOMY), Echinochloa crus-galli (ECHCG), Lolium perenne (LOLPE), Zea Mays (ZEAMX), Abutilon theophrasti (ABUTH), Amaranthus retroflexus (AMARE) and Setaria fabenri (SETFA). After 8 days cultivation (post-emergence) under controlled conditions in a glasshouse (at 24/16° C., day/night; 14 hours light; 65% humidity), the plants were sprayed with an aqueous spray solution derived from the formulation of the technical active ingredient in acetone I water (50:50) solution containing 0.5% Tween 20 (polyoxyethelyene sorbitan monolaurate, CAS RN 9005-64-5). The test plants were then grown in a glasshouse under controlled conditions (at 24/16° C., day/night; 14 hours light; 65% humidity) and watered twice daily. After 13 days, the test was evaluated (5=total damage to plant; 0=no damage to plant).

[8] = test system: Alopecurus myosuroides (ALOMY); assay: B2 Post-emergence herbicidal activity; parameters: key: 5=total damage to plant; 0=no damage to plant; conditions: post-emergence application, rate 1000 g/ha, evaluated after 13 days
Procedure: as §2

[9] = test system: Setaria fabenri (SETFA); assay: B2 Post-emergence herbicidal activity; parameters: key: 5=total damage to plant; 0=no damage to plant; conditions: post-emergence application, rate 1000 g/ha, evaluated after 13 days
Procedure: as §2

[10] = test system: Triticum aestivium (TRZAW); assay: B2 Post-emergence herbicidal activity; parameters: key: 5=total damage to plant; 0=no damage to plant; conditions: post-emergence application, rate 1000 g/ha, evaluated after 13 days
Procedure: as §2

Row | Structure (SMILES) | Pre-emergence herbicidal activity, ALOMY (damage score 0-5) [1] | Pre-emergence herbicidal activity, AVEFA (damage score 0-5) [2] | Pre-emergence herbicidal activity, TRAZW (damage score 0-5) [3] | Pre-emergence herbicidal activity, ECHCG (damage score 0-5) [4] | Pre-emergence herbicidal activity, LOLPE (damage score 0-5) [5] | Pre-emergence herbicidal activity, SETFA (damage score 0-5) [6] | Post-emergence herbicidal activity, ECHCG (damage score 0-5) [7] | Post-emergence herbicidal activity, ALOMY (damage score 0-5) [8] | Post-emergence herbicidal activity, SETFA (damage score 0-5) [9] | Post-emergence herbicidal activity, TRAZW (damage score 0-5) [10]
1 | CCN(CC)CCCN(C(=O)C(C)C)c1ccc(-c2cncc(F)c2)nc1C(F)(F)F [Compound C69] | 0 | 1 | 0 | 3 | 0 | 5 | 3 | 0 | 4 | 0
2 | CCC(=O)N(CC(=O)N(C)C)c1ccc(-c2cncc(F)c2)nc1C(F)(F)F [Compound C71] | 0 | 1 | 1 | 4 | 1 | 5 | 4 | 0 | 5 | 0
3 | CCC(=O)N(COCC(F)(F)F)c1ccc(-c2cncc(F)c2)nc1C(F)(F)F [Compound C72] | 0 | 0 | 0 | 1 | 0 | 4 | 2 | 0 | 3 | 0
4 | CCC(=O)N(CC=C(C)C)c1ccc(-c2cncc(F)c2)nc1C(F)(F)F [Compound C73] | 0 | 2 | 0 | 4 | 0 | 5 | 4 | 0 | 5 | 0
5 | CCN(CC)CCCN(C(=O)c1ccccc1)c1ccc(-c2cncc(F)c2)nc1C(F)(F)F [Compound C74] | 1 | 0 | 0 | 1 | 1 | 3 | 2 | 0 | 3 | 0
6 | CC(C)(C)COCN(C(=O)c1ccccc1)c1ccc(-c2cncc(F)c2)nc1C(F)(F)F [Compound C76] | 0 | 0 | 0 | 1 | 0 | 5 | 3 | 0 | 4 | 1
7 | O=C(c1ccccc1)N(Cc1ccc(Cl)cc1)c1ccc(-c2cncc(F)c2)nc1C(F)(F)F [Compound C77] | 0 | 0 | 0 | 0 | 0 | 1 | 1 | 0 | 2 | 0
8 | O=C(c1ccccc1)N(Cc1cnc(Cl)s1)c1ccc(-c2cncc(F)c2)nc1C(F)(F)F [Compound C78] | 0 | 0 | 0 | 1 | 0 | 2 | 1 | 0 | 3 | 0
9 | COCC(=O)N(CC(C)C)c1ccc(-c2cncc(F)c2)nc1C(F)(F)F [Compound C79] | 0 | 1 | 0 | 3 | 2 | 5 | 3 | 0 | 3 | 0
10 | COCC(=O)N(COCC(C)(C)C)c1ccc(-c2cncc(F)c2)nc1C(F)(F)F [Compound C81] | 0 | 1 | 0 | 3 | 2 | 5 | 4 | 0 | 5 | 0
11 | COCC(=O)N(Cc1ccc(Cl)cc1)c1ccc(-c2cncc(F)c2)nc1C(F)(F)F [Compound C82] | 0 | 0 | 0 | 1 | 0 | 1 | 1 | 0 | 2 | 0
12 | COCC(=O)N(Cc1cnc(Cl)s1)c1ccc(-c2cncc(F)c2)nc1C(F)(F)F [Compound C83] | 0 | 1 | 0 | 2 | 1 | 4 | 2 | 0 | 3 | 0
13 | COCC(=O)N(CC(=O)N(C)C)c1ccc(-c2cncc(F)c2)nc1C(F)(F)F [Compound C84] | 0 | 1 | 0 | 2 | 1 | 5 | 3 | 1 | 4 | 0
